The results in this text go back to PubChem BioAssay AID328 (DTP/NCI, 2004).

Inconclusive results and toxic doses are left out.

The subject of the assay is BDF1 mice, P388 leukemia ip, median survival T/C. The assay can be described thus: NCI In Vivo Anticancer Drug Screen. Data for tumor model P388 Leukemia (intraperitoneal) in B6D2F1 (BDF1) mice. As to conditions: endpoint: median survival time, higher = longer survival. In short, it runs like this:
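Vehicle-dosed animals serve as the reference; survival of compound-dosed, tumour-implanted mice is divided by it.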

[1] abbreviates: dose: 50.0 mg/kg/injection, schedule: Q01DX009 (ip), vehicle: saline with Tween-80.
Setting [2] is: dose: 66.0 mg/kg/injection, schedule: Q04DX003 (ip), vehicle: saline with Tween-80.
Where [3] appears, read: dose: 100.0 mg/kg/injection, schedule: Q01DX009 (ip), vehicle: saline with Tween-80.
Setting [4] is: dose: 100.0 mg/kg/injection, schedule: Q04DX003 (ip), vehicle: saline with Tween-80.
Setting [5] is: dose: 200.0 mg/kg/injection, schedule: Q01DX009 (ip), vehicle: saline with Tween-80.
Where [6] appears, read: dose: 200.0 mg/kg/injection, schedule: Q04DX003 (ip), vehicle: saline with Tween-80.
Where [7] appears, read: dose: 400.0 mg/kg/injection, schedule: Q01DX009 (ip), vehicle: saline with Tween-80.
[8] abbreviates: dose: 400.0 mg/kg/injection, schedule: Q04DX003 (ip), vehicle: saline with Tween-80.
[9] abbreviates: dose: 100.0 mg/kg/injection, schedule: Q01DX009 (ip), vehicle: saline.
Setting [10] is: dose: 400.0 mg/kg/injection, schedule: Q01DX009 (ip), vehicle: saline.
Where [11] appears, read: dose: 100.0 mg/kg/injection, schedule: Q04DX003 (ip), vehicle: Klucel (hydroxypropylcellulose) (HPC).
Setting [12] is: dose: 200.0 mg/kg/injection, schedule: Q04DX003 (ip), vehicle: Klucel (hydroxypropylcellulose) (HPC).
The mark [13] stands for this setting: dose: 400.0 mg/kg/injection, schedule: Q04DX003 (ip), vehicle: Klucel (hydroxypropylcellulose) (HPC).
Where [14] appears, read: dose: 100.0 mg/kg/injection, schedule: Q01DX009 (ip), vehicle: Klucel (hydroxypropylcellulose) (HPC).
Setting [15] is: dose: 200.0 mg/kg/injection, schedule: Q01DX009 (ip), vehicle: Klucel (hydroxypropylcellulose) (HPC).
Setting [16] is: dose: 400.0 mg/kg/injection, schedule: Q01DX009 (ip), vehicle: Klucel (hydroxypropylcellulose) (HPC).

Consider `CC(C)CC1NC(=O)C(Cc2ccc(OCc3ccccc3)cc2)NC1=O` (stereo not given), for which the T/C is, setting by setting: (dose: 40.0 mg/kg/injection, schedule: Q04DX003 (ip), vehicle: saline with Tween-80) 95 % of control; under setting [1], 101 % of control; under setting [2], 91 % of control; under setting [3], 95 % of control; under setting [4], 87 % of control; (dose: 166.0 mg/kg/injection, schedule: Q04DX003 (ip), vehicle: saline with Tween-80) 95 % of control. For the same molecule, the T/C reads like this: under setting [5], 93 % of control; under setting [6], 111 % of control; (dose: 276.0 mg/kg/injection, schedule: Q04DX003 (ip), vehicle: saline with Tween-80) 91 % of control; under setting [7], 96 % of control; under setting [8], 111 % of control.
With `CC(=O)N1C(=O)N(Cl)C(=O)C1(c1ccc(Cl)cc1)c1ccc(Cl)cc1`, the T/C was 116 % of control (dose: 60.0 mg/kg/injection, schedule: Q01DX009 (ip), vehicle: saline with Tween-80); 91 % of control under setting [3]; 113 % of control under setting [4]; 113 % of control under setting [5]; 109 % of control under setting [6]; 122 % of control under setting [8].
As for `CCOP(=S)(N1CC1C)N1CC1C` (stereo not given), the T/C is 116 % of control under setting [2]; 163 % of control (dose: 100.0 mg/kg/injection, schedule: Q01DX007 (ip), vehicle: saline with Tween-80); 112 % of control under setting [4]; 159 % of control (dose: 150.0 mg/kg/injection, schedule: Q01DX007 (ip), vehicle: saline with Tween-80); 120 % of control (dose: 150.0 mg/kg/injection, schedule: Q04DX003 (ip), vehicle: saline with Tween-80).
For `NC1CONC1=O` (stereo not given), the T/C is, setting by setting: (dose: 25.0 mg/kg/injection, schedule: Q01DX009 (ip), vehicle: saline) 90 % of control; (dose: 25.0 mg/kg/injection, schedule: Q04DX003 (ip), vehicle: saline) 104 % of control; (dose: 50.0 mg/kg/injection, schedule: Q01DX009 (ip), vehicle: saline) 95 % of control; (dose: 50.0 mg/kg/injection, schedule: Q04DX003 (ip), vehicle: saline) 100 % of control; under setting [9], 90 % of control; (dose: 100.0 mg/kg/injection, schedule: Q04DX003 (ip), vehicle: saline) 104 % of control. Also, the T/C is 100 % of control (dose: 200.0 mg/kg/injection, schedule: Q04DX003 (ip), vehicle: saline); 100 % of control under setting [10]; 100 % of control (dose: 400.0 mg/kg/injection, schedule: Q04DX003 (ip), vehicle: saline).
Turning to `O=C(/C=C\c1ccc(O)c(O)c1)OC1C(O)CC(OC(=O)/C=C/c2ccc(O)c(O)c2)(C(=O)O)CC1O` (stereo not given), the T/C is, setting by setting: (dose: 100.0 mg/kg/injection, schedule: Q01DX001 (ip), vehicle: saline) 95 % of control; under setting [11], 100 % of control; (dose: 200.0 mg/kg/injection, schedule: Q01DX001 (ip), vehicle: saline) 95 % of control; under setting [12], 100 % of control; (dose: 400.0 mg/kg/injection, schedule: Q01DX001 (ip), vehicle: saline) 95 % of control; under setting [13], 95 % of control.
For `Nc1ccc(C(=O)O)cn1`, the T/C was 105 % of control (dose: 20.0 mg/kg/injection, schedule: Q01DX009 (ip), vehicle: saline); 98 % of control (dose: 40.0 mg/kg/injection, schedule: Q01DX009 (ip), vehicle: saline); 110 % of control (dose: 80.0 mg/kg/injection, schedule: Q01DX009 (ip), vehicle: saline).
`O=c1cc(CO)[nH]cc1O`: the T/C (dose: 177.0 mg/kg/injection, schedule: Q01DX009 (ip), vehicle: Klucel (hydroxypropylcellulose) (HPC)) was 119 % of control.
Turning to `Cc1ccc(C2NC(=S)N3C(c4ccc(C)cc4)NC(=S)N23)cc1` (stereo not given), the T/C was 98 % of control (dose: 50.0 mg/kg/injection, schedule: Q01DX009 (ip), vehicle: Klucel (hydroxypropylcellulose) (HPC)); 111 % of control under setting [14]; 111 % of control under setting [15]; 154 % of control under setting [16]; 112 % of control under setting [10]; 120 % of control (dose: 600.0 mg/kg/injection, schedule: Q01DX009 (ip), vehicle: saline).
With `COC(=O)C1(N)CCCC1`, the T/C was 91 % of control under setting [9] and 104 % of control (dose: 200.0 mg/kg/injection, schedule: Q01DX009 (ip), vehicle: saline).
For `COc1ccc(CCN2C(=O)CSC2=S)cc1OC`, the T/C (dose: 100.0 mg/kg/injection, schedule: Q01DX001 (ip), vehicle: Klucel (hydroxypropylcellulose) (HPC)) is 90 % of control; the T/C (dose: 200.0 mg/kg/injection, schedule: Q01DX001 (ip), vehicle: Klucel (hydroxypropylcellulose) (HPC)) is 100 % of control; the T/C (dose: 400.0 mg/kg/injection, schedule: Q01DX001 (ip), vehicle: Klucel (hydroxypropylcellulose) (HPC)) was 90 % of control.
For the molecule `COc1ccc(-c2noc(=O)c3ccccc23)cc1`, the T/C was 102 % of control under setting [1], 100 % of control under setting [3] and 114 % of control under setting [5].
Consider `O=C(NO)c1ccccn1`, for which the T/C (dose: 130.0 mg/kg/injection, schedule: Q01DX010 (ip), vehicle: water) was 109 % of control and the T/C (dose: 200.0 mg/kg/injection, schedule: Q01DX010 (ip), vehicle: water) is 100 % of control.
On to `CCC(=O)O[C@H]1CC[C@H]2[C@@H]3CC[C@H]4CC(=O)[C@H](C)C[C@]4(C)[C@H]3CC[C@]12C`, for which the T/C runs as follows: under setting [14], 87 % of control; under setting [11], 104 % of control; under setting [15], 95 % of control; under setting [12], 100 % of control; under setting [16], 87 % of control; under setting [13], 104 % of control.
On to `CC1OC(OC2C(O)CC(OC3C(O)CC(OC4CCC5(C)C(CCC6C5CCC5(C)C(C7=CC(=O)OC7)CCC65O)C4)OC3C)OC2C)CC(O)C1O` (stereo not given), for which the T/C is, setting by setting: (dose: 0.63 mg/kg/injection, schedule: Q01DX010 (ip), vehicle: saline) 113 % of control; (dose: 1.25 mg/kg/injection, schedule: Q01DX010 (ip), vehicle: saline) 100 % of control; (dose: 2.5 mg/kg/injection, schedule: Q01DX010 (ip), vehicle: saline) 118 % of control; (dose: 5.0 mg/kg/injection, schedule: Q01DX010 (ip), vehicle: saline) 100 % of control.
As to `CC(=O)CC(C)=O.CC(=O)CC(C)=O.Cc1nccn1C.O=N[O-].[Co]`, the T/C (dose: 100.0 mg/kg/injection, schedule: Q04DX002 (ip), vehicle: saline with Tween-80) was 105 % of control.
As to `O=C(O)c1cc(Br)ccc1OCc1cccc(Cl)c1`, the T/C under setting [4] was 99 % of control.
Regarding `CCCCCCCCCCCCCCCCn1/c(=N/N=C/c2ccccc2S(=O)(=O)O)sc2ccccc21`, the T/C is, setting by setting: under setting [11], 104 % of control; under setting [15], 95 % of control; under setting [12], 118 % of control; under setting [16], 95 % of control; under setting [13], 95 % of control.
Regarding `CCCCN(C(=O)C(F)(F)F)C(C)(C)C(SSSC(c1ccc(Cl)cc1)C(C)(C)N(CCCC)C(=O)C(F)(F)F)c1ccc(Cl)cc1` (stereo not given), the T/C reads like this: under setting [3], 100 % of control; under setting [4], 100 % of control; under setting [5], 100 % of control; under setting [6], 100 % of control; under setting [7], 100 % of control; under setting [8], 118 % of control.
In the case of `CC1(C)N=C(N)N=C(N)N1c1cccc(CC(=O)Nc2ccc(S(=O)(=O)F)cc2)c1`, the T/C reads like this: (dose: 25.0 mg/kg/injection, schedule: Q01DX009 (ip), vehicle: saline with Tween-80) 120 % of control; under setting [1], 155 % of control; under setting [3], 175 % of control; under setting [5], 170 % of control.
As to `CC(C)C(=O)OCC1OC(n2cnc3c(=S)nc[nH]c32)C(OC(=O)C(C)C)C1OC(=O)C(C)C` (stereo not given), the T/C runs as follows: (dose: 88.0 mg/kg/injection, schedule: Q01DX009 (ip), vehicle: saline with Tween-80) 104 % of control; under setting [3], 118 % of control; (dose: 133.0 mg/kg/injection, schedule: Q01DX009 (ip), vehicle: saline with Tween-80) 95 % of control; under setting [5], 100 % of control; (dose: 300.0 mg/kg/injection, schedule: Q01DX009 (ip), vehicle: saline with Tween-80) 100 % of control; under setting [7], 100 % of control.
